1 compound from ChEMBL document CHEMBL5360572, “Advances of bioorthogonal coupling reactions in drug development” (Eur J Med Chem, 2023) can be followed below.

Experiment [1] has as its target T1, M-phase inducer phosphatase 3 (Homo sapiens, UniProt P30307).
T1 sequence (P30307 whole entry): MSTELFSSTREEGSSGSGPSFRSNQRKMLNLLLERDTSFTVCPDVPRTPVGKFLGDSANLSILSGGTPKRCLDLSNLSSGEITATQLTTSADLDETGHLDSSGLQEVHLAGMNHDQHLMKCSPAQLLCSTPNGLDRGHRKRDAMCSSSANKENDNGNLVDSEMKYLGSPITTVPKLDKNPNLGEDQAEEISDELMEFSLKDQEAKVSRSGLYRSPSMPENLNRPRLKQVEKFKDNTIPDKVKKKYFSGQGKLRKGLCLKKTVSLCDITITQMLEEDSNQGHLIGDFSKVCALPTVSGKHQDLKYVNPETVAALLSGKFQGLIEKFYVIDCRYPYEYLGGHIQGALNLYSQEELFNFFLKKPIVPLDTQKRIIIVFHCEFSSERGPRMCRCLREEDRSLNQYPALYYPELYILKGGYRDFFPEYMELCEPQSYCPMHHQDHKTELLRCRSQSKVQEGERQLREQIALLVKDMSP
Put plainly: Inhibition of full-length recombinant human CDC25C using OMFP as substrate incubated for 5 to 8 mins by fluorescence based assay.

For experiment [2], the target named is T2, M-phase inducer phosphatase 1 (Homo sapiens, UniProt P30304).
T2 sequence (P30304 whole entry): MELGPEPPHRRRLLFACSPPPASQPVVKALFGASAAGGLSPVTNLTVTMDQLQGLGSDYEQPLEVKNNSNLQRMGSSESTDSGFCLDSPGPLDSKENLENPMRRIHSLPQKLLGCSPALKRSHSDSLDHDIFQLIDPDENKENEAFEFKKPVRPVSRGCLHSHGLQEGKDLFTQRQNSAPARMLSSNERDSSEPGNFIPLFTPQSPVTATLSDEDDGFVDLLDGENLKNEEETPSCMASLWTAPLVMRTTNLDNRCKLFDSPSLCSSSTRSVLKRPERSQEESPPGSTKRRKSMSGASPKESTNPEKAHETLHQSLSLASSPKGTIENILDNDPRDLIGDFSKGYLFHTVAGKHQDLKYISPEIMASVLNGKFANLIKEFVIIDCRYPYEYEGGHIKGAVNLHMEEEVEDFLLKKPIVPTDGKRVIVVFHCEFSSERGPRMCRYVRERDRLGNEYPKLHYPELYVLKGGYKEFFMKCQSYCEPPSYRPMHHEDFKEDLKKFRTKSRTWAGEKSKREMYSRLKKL
The experiment in a line: Inhibition of full-length recombinant human CDC25A using OMFP as substrate incubated for 5 to 8 mins by fluorescence based assay.

Experiment [3] concerns the target T3, M-phase inducer phosphatase 2 (Homo sapiens, UniProt P30305).
T3 sequence (P30305 whole entry): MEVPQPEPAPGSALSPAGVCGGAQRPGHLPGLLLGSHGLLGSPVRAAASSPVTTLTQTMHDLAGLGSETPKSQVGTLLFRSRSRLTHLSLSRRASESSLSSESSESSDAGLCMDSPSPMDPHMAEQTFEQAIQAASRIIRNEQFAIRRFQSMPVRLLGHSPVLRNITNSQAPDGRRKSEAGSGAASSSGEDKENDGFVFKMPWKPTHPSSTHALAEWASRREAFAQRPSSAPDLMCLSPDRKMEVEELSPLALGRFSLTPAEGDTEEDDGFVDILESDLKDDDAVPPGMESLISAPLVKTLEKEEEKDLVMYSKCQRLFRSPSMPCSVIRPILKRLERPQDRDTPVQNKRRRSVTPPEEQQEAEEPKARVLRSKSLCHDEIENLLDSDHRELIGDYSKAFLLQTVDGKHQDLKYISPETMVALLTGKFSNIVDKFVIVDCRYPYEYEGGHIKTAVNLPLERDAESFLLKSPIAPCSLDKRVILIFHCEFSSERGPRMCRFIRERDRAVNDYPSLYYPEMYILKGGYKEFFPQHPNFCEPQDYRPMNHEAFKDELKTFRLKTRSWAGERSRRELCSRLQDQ
The experiment in a line: Inhibition of full-length recombinant human CDC25B using OMFP as substrate incubated for 5 to 8 mins by fluorescence based assay.

As for `CC(NC1=C(Cl)C(=O)c2cccnc2C1=O)c1cn(-c2ccc(CO)cc2)nn1` (stereo not drawn), the figures for the concentration for half-maximal inhibition (IC50) in experiment [1], in experiment [2] and in experiment [3] were 60 nM, 150 nM and 190 nM, respectively.
